Test results: US20150038545A1, “HYDROXYPHENYL PYRROLE COMPOUNDS CONTAINING AN HYDROXAMIC ACID AS HDAC INHIBITORS AND MEDICINAL APPLICATIONS THEREOF” (UNIVERSIDAD DEL PAÍS VASCO, priority 2011, published 2015)

Legend:
MCF-7 = assay: Cancer cell growth inhibition (CellTiter-Glo), MCF-7; format: cell-based, Human; details: Homo sapiens, MCF7; Breast Cancer, MCF-7, 72 h treatment
Description: (§1) Cell culture-based assays were used to evaluate the ability of compounds of the invention to inhibit cancer cell growth.
(§2) Cells were obtained from the American Type Culture Collection (ATCC). Cells were cultured at 37° C. with 5% CO2 in the appropriate growth medium (see table below), and harvested respectively during the logarithmic growth period and counted with hemocytometer. The cell viability was examined by trypan blue exclusion. Cell concentrations were adjusted to 5.56×10^4 cells/ml with respective medium.
(§3) Stock solutions of test compounds and positive drugs Doxorubicin (Zhejiang, Haizheng, China), Cisplatin (Nanjing Zhiyao, China) and Mitomycin (Zhejiang, Haizheng, China) were prepared in dimethyl sulphoxide (DMSO) or PBS at 20 mM.
(§4) In order to determine the IC50 for each compound, experiments were carried out in 96-well plates and the cell lines seeded at a density of 5,000 cells/well. […] All treatments were performed in triplicate. 10 μl of drug solution was added to each well and incubated for 72 hours. At the end of the incubation, 100 μl of the CellTiter-Glo Reagent were added to each well and the contents were mixed for 2 munites on an orbital shaker to induce cell lysis. The plate was incubated at room temperature for 10 minutes to stabilize luminiscent signal, and luminiscent was recorded. […] In order to calculate IC50 values, dose-responsive curves were fitted using nonlinear regression model with a sigmoidal dose response.

Bx-PC-3 = assay: Cancer cell growth inhibition (CellTiter-Glo), Bx-PC-3; format: cell-based, Human; details: Homo sapiens, BXPC-3; Pancreatic Cancer, Bx-PC-3, 72 h treatment
Description: as §1, §2, §3, §4

PANC-1 = assay: Cancer cell growth inhibition (CellTiter-Glo), PANC-1; format: cell-based, Human; details: Homo sapiens; Pancreatic Cancer, PANC-1, 72 h treatment
Description: as §1, §2, §3, §4

SK-OV-3 = assay: Cancer cell growth inhibition (CellTiter-Glo), SK-OV-3; format: cell-based, Human; details: Homo sapiens; Ovarian Cancer, SK-OV-3, 72 h treatment
Description: as §1, §2, §3, §4

HT-1080 = assay: Cancer cell growth inhibition (CellTiter-Glo), HT-1080; format: cell-based; details: Homo sapiens; Fibrosarcoma, HT-1080, 72 h treatment
Description: as §1, §2, §3, §4

Human HDAC4 = target: T1, Human HDAC4 (Homo sapiens, UniProt P56524); assay: In vitro HDAC4 inhibition, fluorogenic peptide assay; format: biochemical; details: for IC50: read-out: IC50 (nM) of enzyme activity HDAC4
T1 construct: Amino acids 627-1085 with N-terminal GST tag, MW=75.2 kDa; GST (N); purchased BioMol, Hamburg, Germany
T1 sequence (P56524 627-1084 limits assumed): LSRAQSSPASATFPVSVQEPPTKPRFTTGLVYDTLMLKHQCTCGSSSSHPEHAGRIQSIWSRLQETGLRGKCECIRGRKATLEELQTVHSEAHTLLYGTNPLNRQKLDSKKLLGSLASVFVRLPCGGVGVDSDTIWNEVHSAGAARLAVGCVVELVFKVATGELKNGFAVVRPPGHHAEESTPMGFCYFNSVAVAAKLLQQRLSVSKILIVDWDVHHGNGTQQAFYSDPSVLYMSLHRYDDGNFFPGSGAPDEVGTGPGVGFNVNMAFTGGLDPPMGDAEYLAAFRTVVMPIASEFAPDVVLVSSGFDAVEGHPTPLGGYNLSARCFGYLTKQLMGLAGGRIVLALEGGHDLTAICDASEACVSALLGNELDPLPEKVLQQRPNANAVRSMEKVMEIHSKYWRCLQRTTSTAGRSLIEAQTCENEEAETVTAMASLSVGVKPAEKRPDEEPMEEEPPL
Description: All HDAC assays were performed using acetylated AMC-labeled peptide substrate: • Substrate for isoforms HDAC1, 2, 3, 4, 5, 6, 7, 9, 10, 11 and HeLa nuclear extract assays: Acetylated fluorogenic peptide from p53 residues 379-382 (RHKKAc) (BioMol. Cat. # KI-104). • Substrate for HDAC8 assays: Acetylated fluorogenic peptide from p53 residues 379-382 (RHKAcKAc) (BioMol. Cat. # KI-178).
Enzymes: • HDAC1 assay: 75 nM Human HDAC1 (GenBank Accession No. NM_004964): Full length with C-terminal GST tag, MW=79.9 kDa, expressed by baculovirus expression system in Sf9 cells (BioMol. Cat. # SE-456). • HDAC2 assay: 5 nM Human HDAC2 (GenBank Accession No. Q92769): Full length with C-terminal His tag, MW=60 kDa, expressed by baculovirus expression system in Sf9 cells (BioMol. Cat. # SE-500). • HDAC3 assay: 2.3 nM Human HDAC3/NcoR2 (GenBank Accession No. NM_003883 for HDAC3, GenBank Accession No.NM_006312 for NcoR2): Complex of human HDAC3, full length with C-terminal His tag, MW=49.7 kDa, and human NCOR2, N-terminal GST tag, MW=39 kDa, co-expressed in baculovirus expression system (BioMol. Cat. # SE-507). • HDAC4 assay: 266 nM Human HDAC4 (GenBank Accession No. NM_006037): Amino acids 627-1085 with N-terminal GST tag, MW=75.2 kDa, expressed in baculovirus expression system (BioMol, Hamburg, Germany). • HDAC5 assay: 588 nM Human HDAC5 (GenBank Accession No. NM_001015053): Full length with Nterminal GST tag, MW=150 kDa, expressed by baculovirus expression system in Sf9 cells (BioMol, Hamburg, Germany). • HDAC6 assay: 13 nM Human HDAC6 (GenBank Accession No. BC069243): Full length with N-terminal GST tag, MW=159 kDa, expressed by baculovirus expression system in Sf9 cells (BioMol. Cat. # SE-508). • HDAC7 assay: 962 nM Human HDAC7 (GenBank Accession No. AY302468): Amino acids 518-end with N-terminal GST tag, MW=78 kDa, expressed in baculovirus expression system (BioMol, Hamburg, Germany). • HDAC8 assay: 119 nM Human HDAC8 (GenBank Accession No. NM018486): Full length, MW=42 kDa, expressed in an E. coli expression system (BioMol. […]
The reactions were carried out in a 96-well microplate for fluorometry in a 50 μl reaction volume. […] The reaction was allowed to develop for 45 minutes at 30° C. with 5% CO2; then the fluorescent signal was measured with an excitation wavelength at 360 nm and an emission wavelength at 460 nm in a microplate-reading fluorometer (GeminiXS; Molecular Devices, Sunnyvale, Calif.). […] IC50 was calculated by fitting the experimental data to a dose-response curve. […]

IC50 (MCF-7) [µM]	IC50 (Bx-PC-3) [µM]	IC50 (PANC-1) [µM]	IC50 (SK-OV-3) [µM]	IC50 (HT-1080) [µM]	IC50 (Human HDAC4) [nM]	Selectivity against HDAC6 (IC50 HDACx/IC50 HDAC6) HDAC4 (Human HDAC4; IC50 HDAC4/IC50 HDAC6)	Structure (SMILES)
1.75	2.68	6.04	3.16	3			O=C(CCCCCNC(=O)c1[nH]c(-c2ccccc2)cc1-c1ccc(O)cc1)NO [Example 1, N-(6-(hydroxyamino)-6-oxohexyl)-3-(4-hydroxyphenyl)-5-phenyl-1H-pyrrole-2-carboxamide]
9.23	2.42	29.2	1.56	3.12	143		O=C(CCCCCNC(=O)c1[nH]c(-c2ccc(O)cc2)cc1-c1ccoc1)NO [Example 5, 3-(3-furyl)-N-(5-(hydroxycarbamoyl)pentyl)-5-(4-hydroxy-phenyl)-1H-pyrrole-2-carboxamide]
					1840	91.9	COc1ccc(-c2cc(-c3ccccc3)[nH]c2C(=O)NCCCCCC(=O)NO)cc1 [Compound A, N-[6-(hydroxyamino)-6-oxohexyl]-3-(4-methoxyphenyl)-5-phenyl-1H-pyrrole-2-carboxamide, reference compound]
10.9	4.27	27.7	6.88	3.24			O=C(CCCCCNC(=O)c1[nH]c(-c2ccc(O)cc2)cc1-c1ccccc1)NO [Example 2, N-(6-(hydroxyamino)-6-oxohexyl)-5-(4-hydroxyphenyl)-3-phenyl-1H-pyrrole-2-carboxamide]
7.07	2.91	22.2	3.15	3.1	499		O=C(CCCCCNC(=O)c1[nH]c(-c2ccc(O)cc2)cc1-c1ccsc1)NO [Example 6, N-(5-(hydroxycarbamoyl)pentyl)-5-(4-hydroxyphenyl)-3-(3-thienyl)-1H-pyrrole-2-carboxamide]
